Measurements as given in US20240317727A1 (Duke University, priority 2018, published 2024).

Target: T1, recombinant HSF1 DNA-binding domain (DBD) (Homo sapiens, UniProt Q00613)
T1 sequence (Q00613 15-120): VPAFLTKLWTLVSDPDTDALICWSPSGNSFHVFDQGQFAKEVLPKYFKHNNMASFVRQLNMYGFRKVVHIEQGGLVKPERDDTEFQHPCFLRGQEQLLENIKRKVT
Experiment: Differential Scanning Fluorimetry (DSF), HSF1 DBD melting temperature
Details: Table 1; 5 μM HSF1 DBD, 25PM Compound; positive = stabilizes, negative = destabilizes HSF1

Compound	ΔTm at 25 µM [°C]	ΔTm
O=C(Nc1ccc(Cl)cc1)Nc1ccc(Cl)c([N+](=O)[O-])c1 [Compound 0048, 1-(4-chloro-3-nitrophenyl)-3-(4-chlorophenyl)urea]	2.61	
O=C(Nc1ccc(Cl)cc1)Nc1cccc([N+](=O)[O-])c1 [Compound 0049, 1-(4-chlorophenyl)-3-(3-nitrophenyl)urea]	3.11	
O=C(Nc1cccc(Cl)c1)O/N=C/c1ccc(F)cc1 [Compound 0051]		−6.91
N=C(N)NC(=O)c1nc(Cl)c(N)nc1N [Compound 0053]	-10.1	
CCOC(=O)c1cc(C#N)c(Sc2nnc(SC)s2)nc1C(F)(F)F [Compound 0055]	-9.69	
CCC(C(=O)C(C)C(O)C(C)CCc1ccc(C)c(O)c1C(=O)O)C1OC(CC)(C2CCC(O)(CC)C(C)O2)CC1C (stereo not drawn) [Compound 0056]	-5.96	
Cc1ccc(NC(=O)Nc2cccc(C(F)(F)F)c2)cc1 [Compound 0058, 1-(p-tolyl)-3-(3-(trifluoromethyl)phenyl)urea]	2.58	
O=C(Nc1cccc(Cl)c1)Nc1ccc(Cl)c([N+](=O)[O-])c1 [Compound 0061, 1-(4-chloro-3-nitrophenyl)-3-(3-chlorophenyl)urea]	2.94	
O=[N+]([O-])c1cc(C(F)(F)F)cc([N+](=O)[O-])c1Oc1ccc(C2SCCS2)cc1 [Compound 0062]	-6.9	
CSc1sc(NC(=O)Nc2cccc(C(F)(F)F)c2)cc1C#N [Compound 0065]	4.44	
COc1cc(C(=O)Oc2c(Cl)cc(Cl)cc2/C=N\c2cccc(C(F)(F)F)c2)cc(OC)c1OC [Compound 0070]	-7.24	
CCOC(=O)CCc1ccc(Oc2c([N+](=O)[O-])cc(C(F)(F)F)cc2[N+](=O)[O-])cc1 [Compound 0072]	3.39	
CC(C)(C)CC(C)(C)c1ccc(O)c(Cc2ccc(Cl)cc2Cl)c1 [Compound 0073]	2.6	
O=C(Nc1cc(Cl)cc(Cl)c1)Nc1cc(-c2cccs2)n[nH]1 [Compound 0074]	2.61	
O=C(Nc1ccc(F)cc1)Nc1cccc([N+](=O)[O-])c1 [Compound 0076, 1-(4-fluorophenyl)-3-(3-nitrophenyl)urea]	-7.23	
O=[N+]([O-])c1cc(C(F)(F)F)cc([N+](=O)[O-])c1Oc1ccc(I)cc1 [Compound 0077]	2.5	
O=C(Nc1cccc(Cl)c1)Nc1cccc([N+](=O)[O-])c1 [Compound 0078, 1-(3-chlorophenyl)-3-(3-nitrophenyl)urea]	2.25	
O=C(Nc1ccc(Cl)c([N+](=O)[O-])c1)Nc1ccc(F)cc1C1(C(F)(F)F)N=N1 [Compound 0079, 1-(4-chloro-3-nitro-phenyl)-3-[4-fluoro-2-[3-(trifluoromethyl)diazirin-3-yl]phenyl]urea]	2.25	
O=[N+]([O-])c1cc(NC2=NS(=O)(=O)N=C2Nc2ccc(F)cc2)ccc1Cl [Compound 0080, N3-(4-chloro-3-nitro-phenyl)-N4-(4-fluorophenyl)-1,1-dioxo-1,2,5-thiadiazole-3,4-diamine]	1.6	
N#Cc1cc(NC(=O)Nc2ccc(F)cc2)ccc1Cl [Compound 0083, 1-(4-chloro-3-cyano-phenyl)-3-(4-fluorophenyl) urea]	2	
COc1cc2cc(N(C)CCCNC(=O)C3CCCO3)cc(N)c2cc1OC (stereo not drawn) [Compound 0088]	-3.02	
COc1ccc(CSc2ccc([N+](=O)[O-])c3nonc23)cc1 [Compound 0089]	-5.73	
O=C(Nc1ccc(F)cc1)Nc1ccc(Cl)nc1 [Compound 0090, 1-(6-chloro-3-pyridyl)-3-(4-fluorophenyl) urea]	0.67	
O=c1c(Nc2ccc(F)c(F)c2)c(Nc2ccc(Cl)c(C(F)(F)F)c2)c1=O [Compound 0092, 3-[4-chloro-3-(trifluoromethyl)anilino]-4-(3,4-difluoroanilino)cyclobut-3-ene-1,2-dione]	2.33	

Continued, in another order:

ΔTm at 25 µM [°C]	Compound	ΔTm
-11	CC(NC(=O)CSc1nnc(-c2ccccc2O)n1-c1ccccc1)c1ccccc1 (stereo not drawn) [Compound 0052]	
-10.5	O=C(CSc1nnc(-c2ccccc2)n1-c1ccc(F)cc1)NCc1ccccc1 [Compound 0057]	
2.5	O=C(Nc1ccc(F)cc1)Nc1cccc(Cl)c1 [Compound 0060, 1-(3-chlorophenyl)-3-(4-fluorophenyl)urea]	
2.5	Cc1cccc(NC(=O)Nc2cccc(Cl)c2)c1 [Compound 0063, 1-(3-chlorophenyl)-3-(m-tolyl)urea]	
3	O=C(Nc1ccc(Cl)cc1)Nc1cccc(Cl)c1 [Compound 0066, 1-(3-chlorophenyl)-3-(4-chlorophenyl)urea]	
4	Cc1cccc(NC(=O)Nc2cccc([N+](=O)[O-])c2)c1 [Compound 0067, 1-(3-nitrophenyl)-3-(m-tolyl)urea]	
2.75	Cc1ccc(NC(=O)Nc2cccc(Cl)c2)cc1 [Compound 0068, 1-(3-chlorophenyl)-3-(p-tolyl)urea]	
8.06	O=C(N/N=C/c1ccc(Br)s1)c1[nH]cc2ccccc12 [Compound 0069]	
-6.24	Cc1ccc(C(=O)/C=C(\c2ccccc2)N2CCCCC2)cc1 [Compound 0071]	
2.61	Cc1ccc(NC(=O)Nc2ccc(Br)c(C(F)(F)F)c2)cc1 [Compound 0075, 1-(4-bromo-3-(trifluoromethyl)phenyl)-3-(p-tolyl)urea]	
-3.6	c1ccc(-c2ccc(C(c3ccccc3)n3ccnc3)cc2)cc1 (stereo not drawn) [Compound 0081]	
3.9	Cc1ccc(/C=N/NC(=O)c2c[nH]c3ccccc23)s1 [Compound 0082]	
-8.96	CC(C)(C)c1ccc(-c2nnc(SCC(=O)NCc3ccccc3)n2-c2ccccc2)cc1 [Compound 0084]	
3.26	O=C(Nc1ccccc1)Nc1ccc(OC(F)(F)F)cc1 [Compound 0085]	
-11.5	O=C(O)C1=CC(=C(c2ccc(O)c(C(=O)O)c2)c2ccc(O)c(C(=O)O)c2)C=CC1=O [Compound 0086]	
-9.24	CCOc1ccc(S(=O)(=O)NCc2ccccn2)c2ccccc12 [Compound 0087]	
2.5	O=C(Nc1ccccc1)Nc1cccc(Cl)c1 [Compound 0091, 1-(3-chlorophenyl)-3-phenylurea]	

Same assay, conditions: Table 3; 5 μM HSF1 DBD, 25PM Compound; positive = stabilizes, negative = destabilizes HSF1

Compound	ΔTm at 25 µM [°C]
N#CN=C(Nc1ccc(F)cc1)Nc1ccc(Cl)c([N+](=O)[O-])c1 [Compound 047, 1-(4-chloro-3-nitro-phenyl)-2-cyano-3-(4-fluorophenyl)guanidine]	0.75
O=C(Nc1ccc(Cl)cc1)Nc1ccc(Cl)c([N+](=O)[O-])c1 [Compound 048, 1-(4-chloro-3-nitrophenyl)-3-(4-chlorophenyl)urea]	2.61
O=C(Nc1ccc(Cl)cc1)Nc1cccc([N+](=O)[O-])c1 [Compound 049, 1-(4-chlorophenyl)-3-(3-nitrophenyl)urea]	3.11
O=C(Nc1ccc(F)cc1)Nc1ccc(Cl)c(S(=O)(=O)C(F)(F)F)c1 [Compound 054, 1-[4-chloro-3-(trifluoromethylsulfonyl)phenyl]-3-(4-fluorophenyl)urea]	2.9
Cc1ccc(NC(=O)Nc2cccc(C(F)(F)F)c2)cc1 [Compound 058, 1-(p-tolyl)-3-(3-(trifluoromethyl)phenyl)urea]	2.58
O=C(Nc1cccc(Cl)c1)Nc1ccc(Cl)c([N+](=O)[O-])c1 [Compound 061, 1-(4-chloro-3-nitrophenyl)-3-(3-chlorophenyl)urea]	2.94
O=c1c(Nc2ccc(F)cc2)c(Nc2ccc(Cl)c(C(F)(F)F)c2)c1=O [Compound 064, 3-[4-chloro-3-(trifluoromethyl)anilino]-4-(4-fluoroanilino)cyclobut-3-ene-1,2-dione]	2.3
O=C(Nc1ccc(F)cc1)Nc1cccc([N+](=O)[O-])c1 [Compound 076, 1-(4-fluorophenyl)-3-(3-nitrophenyl)urea]	2.61
O=C(Nc1cccc(Cl)c1)Nc1cccc([N+](=O)[O-])c1 [Compound 078, 1-(3-chlorophenyl)-3-(3-nitrophenyl)urea]	2.5
O=C(Nc1ccc(Cl)c([N+](=O)[O-])c1)Nc1ccc(F)cc1C1(C(F)(F)F)N=N1 [Compound 079, 1-(4-chloro-3-nitro-phenyl)-3-[4-fluoro-2-[3-(trifluoromethyl)diazirin-3-yl]phenyl]urea]	2.25
O=[N+]([O-])c1cc(NC2=NS(=O)(=O)N=C2Nc2ccc(F)cc2)ccc1Cl [Compound 080, N3-(4-chloro-3-nitro-phenyl)-N4-(4-fluorophenyl)-1,1-dioxo-1,2,5-thiadiazole-3,4-diamine]	1.6
N#Cc1cc(NC(=O)Nc2ccc(F)cc2)ccc1Cl [Compound 083, 1-(4-chloro-3-cyano-phenyl)-3-(4-fluorophenyl) urea]	2
O=C(Nc1ccc(F)cc1)Nc1ccc(Cl)nc1 [Compound 090, 1-(6-chloro-3-pyridyl)-3-(4-fluorophenyl) urea]	0.67

Other lines, results leading:

ΔTm at 25 µM [°C]	Compound
2.5	O=C(Nc1ccc(F)cc1)Nc1cccc(Cl)c1 [Compound 060, 1-(3-chlorophenyl)-3-(4-fluorophenyl)urea]
3	O=C(Nc1ccc(Cl)cc1)Nc1cccc(Cl)c1 [Compound 066, 1-(3-chlorophenyl)-3-(4-chlorophenyl)urea]
4	Cc1cccc(NC(=O)Nc2cccc([N+](=O)[O-])c2)c1 [Compound 067, 1-(3-nitrophenyl)-3-(m-tolyl)urea]
2.75	Cc1ccc(NC(=O)Nc2cccc(Cl)c2)cc1 [Compound 068, 1-(3-chlorophenyl)-3-(p-tolyl)urea]
2.61	Cc1ccc(NC(=O)Nc2ccc(Br)c(C(F)(F)F)c2)cc1 [Compound 075, 1-(4-bromo-3-(trifluoromethyl)phenyl)-3-(p-tolyl)urea]
2.5	O=C(Nc1ccccc1)Nc1cccc(Cl)c1 [Compound 091, 1-(3-chlorophenyl)-3-phenylurea]
